In US20090143279A1 (priority 2007, published 2009):
Read-outs that look alike come from different tables or passages of the source.

Experiments:
[1] = test system: nuOXPHOS transcripts; assay type: cell-based, mouse; conditions: for nucOX (composite Z-score): normalized score vs mock-treated (DMSO) wells
[2] = test system: mitochondrial membrane potential; assay type: cell-based, mouse; conditions: for ΔΨm (composite Z-score): normalized score vs mock-treated (DMSO) wells
[3] = test system: reactive oxygen species; assay type: cell-based, mouse; conditions: for ROS (composite Z-score): normalized score vs mock-treated (DMSO) wells
[4] = test system: mtOXPHOS transcripts; assay type: cell-based, mouse; conditions: for mitoOX (composite Z-score): normalized score vs mock-treated (DMSO) wells
[5] = test system: OXPHOS gene expression; assay type: cell-based, mouse; conditions: for GE-HTS (composite Z-score): normalized score vs mock-treated (DMSO) wells
[6] = test system: C2C12 myotubes; conditions: for Viability (composite Z-score): normalized score vs mock-treated (DMSO) wells
[7] = test system: cellular dehydrogenase activity; conditions: for MTT (composite Z-score): normalized score vs mock-treated (DMSO) wells
[8] = test system: cytochrome c; assay type: cell-based, mouse; conditions: for cyt c (composite Z-score): normalized score vs mock-treated (DMSO) wells
[9] = 20 μM, composite Z-score vs DMSO
[10] = composite Z-score vs DMSO wells, Conc 20 μM
[11] = composite Z-score vs DMSO, Conc 20 μM
[12] = composite Z-score vs mock-treated (DMSO) wells, Conc 20 μM
[13] = normalized composite Z-score vs mock-treated (DMSO) wells, Conc 20 μM
[14] = composite Z-score vs DMSO, Conc 10.62 μM

CCOC(=O)CCC(=O)O[C@H]1[C@H](O[C@@H]2[C@@H](C)[C@H](O[C@H]3C[C@@](C)(OC)[C@@H](O)[C@H](C)O3)[C@@H](C)C(=O)O[C@H](CC)[C@@](C)(O)[C@H](O)[C@@H](C)C(=O)[C@H](C)C[C@@]2(C)O)O[C@H](C)C[C@@H]1N(C)C [erythromycin ethylsuccinate]
nucOX [1, 9]: −0.433
ΔΨm [2, 9]: −0.488
ROS [3, 9]: 0.555
mitoOX [4, 9]: −0.163
GE-HTS [5, 9]: −0.390
Viability [6, 9]: −0.945
MTT [7, 9]: −1.100
cyt c [8, 9]: 0.220

C[C@]12CC[C@@H]3c4ccc(O)cc4CC[C@H]3[C@@H]1CC[C@@H]2OC(=O)CCC1CCCC1 [estradiol cypionate]
nucOX [1, 10]: 0.072
ΔΨm [2, 10]: −0.489
ROS [3, 10]: −0.010
mitoOX [4, 10]: −0.418
GE-HTS [5, 10]: −0.124
Viability [6, 10]: 0.219
MTT [7, 10]: −2.428
cyt c [8, 10]: 0.408

COc1ccc2c(c1)CC[C@@H]1[C@@H]2CC[C@]2(C)[C@@H](O)CC[C@@H]12 [estradiol methyl ether]
nucOX [1, 11]: 0.214
ΔΨm [2, 11]: −0.007
ROS [3, 11]: 0.411
mitoOX [4, 11]: −0.209
GE-HTS [5, 11]: 0.099
Viability [6, 11]: 0.510
MTT [7, 11]: −0.685
cyt c [8, 11]: 1.670

C[C@]12CC[C@@H]3c4ccc(O)cc4CC[C@H]3[C@@H]1CC[C@@H]2O [estradiol]
nucOX [1, 11]: 0.410
ΔΨm [2, 11]: −0.085
ROS [3, 11]: 0.310
mitoOX [4, 11]: −0.058
GE-HTS [5, 11]: 0.290
Viability [6, 11]: 0.400
MTT [7, 11]: −1.040
cyt c [8, 11]: 0.389

C[C@]12CCC3c4ccc(OC(=O)c5ccccc5)cc4CCC3C1CCC2=O (stereo partly shown) [estrone benzoate]
nucOX [1, 11]: 0.190
ΔΨm [2, 11]: −0.277
ROS [3, 11]: 0.210
mitoOX [4, 11]: −0.179
GE-HTS [5, 11]: 0.061
Viability [6, 11]: 0.154
MTT [7, 11]: −0.807
cyt c [8, 11]: 0.406

CCC(N)C(O)c1ccc(O)c(O)c1 (stereo not shown) [ethylnorepinephrine]
nucOX (composite Z-score) ([1]; Conc 20 μM): −0.195
ΔΨm (composite Z-score) ([2]; Conc 20 μM): −2.053
ROS (composite Z-score) ([3]; Conc 20 μM): −0.396
mitoOX (composite Z-score) ([4]; Conc 20 μM): −0.921
GE-HTS (composite Z-score) ([5]; Conc 20 μM): −0.475
Viability (composite Z-score) ([6]; Conc 20 μM): −0.508
MTT (composite Z-score) ([7]; Conc 20 μM): −1.017
cyt c (composite Z-score) ([8]; Conc 20 μM): −0.439

COc1cc([C@@H]2c3cc4c(cc3[C@@H](O[C@@H]3O[C@@H]5CO[C@@H](C)O[C@H]5[C@H](O)[C@H]3O)[C@H]3COC(=O)[C@H]23)OCO4)cc(OC)c1O [etoposide]
nucOX [1, 11]: 0.355
ΔΨm [2, 11]: 0.050
ROS [3, 11]: −1.736
mitoOX [4, 11]: 1.373
GE-HTS [5, 11]: 0.725
Viability [6, 11]: −1.541
MTT [7, 11]: −2.352
cyt c [8, 11]: −0.491

Cc1cc(=O)c2c(O)c(C)c(O)cc2o1 [eugenitol]
nucOX [1, 12]: 0.168
ΔΨm [2, 12]: −0.541
ROS [3, 12]: 1.256
mitoOX [4, 12]: 0.962
GE-HTS [5, 12]: 0.471
Viability [6, 12]: −0.575
MTT [7, 12]: −1.139
cyt c [8, 12]: −0.041

C=CCc1ccc(O)c(OC)c1 [eugenol]
nucOX [1, 9]: −0.166
ΔΨm [2, 9]: −0.816
ROS [3, 9]: 1.068
mitoOX [4, 9]: −0.320
GE-HTS [5, 9]: −0.254
Viability [6, 9]: −0.943
MTT [7, 9]: −0.243
cyt c [8, 9]: 0.307

C=C(C)c1cc2cc(C(C)=O)c(O)cc2o1 [euparin]
nucOX [1, 12]: 1.293
ΔΨm [2, 12]: −0.010
ROS [3, 12]: 0.795
mitoOX [4, 12]: 0.484
GE-HTS [5, 12]: 1.120
Viability [6, 12]: 0.021
MTT [7, 12]: −0.912
cyt c [8, 12]: 0.419

COc1cc(C)c(C(=O)O)c(O)c1 [everninic acid]
nucOX [1, 13]: 1.517
ΔΨm [2, 13]: −0.942
ROS [3, 13]: 0.423
mitoOX [4, 13]: 1.116
GE-HTS [5, 13]: 1.491
Viability [6, 13]: −0.592
MTT [7, 13]: −1.123
cyt c [8, 13]: 0.115

CC(C)=CCC/C(C)=C/CC/C(C)=C/CO [farnesol]
nucOX [1, 11]: 0.106
ΔΨm [2, 11]: −0.153
ROS [3, 11]: 0.550
mitoOX [4, 11]: −0.401
GE-HTS [5, 11]: −0.066
Viability [6, 11]: −1.327
MTT [7, 11]: −1.554
cyt c [8, 11]: −0.437

CC(C)(OC(=O)c1ccccc1)[C@@H]1Cc2cc3ccc(=O)oc3cc2O1 [felamidin]
nucOX [1, 11]: 0.835
ΔΨm [2, 11]: 0.600
ROS [3, 11]: 0.710
mitoOX [4, 11]: 1.050
GE-HTS [5, 11]: 0.966
Viability [6, 11]: 0.224
MTT [7, 11]: −0.475
cyt c [8, 11]: 0.921

CC(NCCC(c1ccccc1)c1ccccc1)c1ccccc1 (stereo not shown) [fendiline]
nucOX [1, 10]: −0.896
ΔΨm [2, 10]: −1.174
ROS [3, 10]: 0.912
mitoOX [4, 10]: −0.951
GE-HTS [5, 10]: −1.005
Viability [6, 10]: −0.080
MTT [7, 10]: −1.007
cyt c [8]: −0.405
cyt c [8, 10]: −0.752

O=C(COc1ccc(Cl)cc1)N1CCN(Cc2ccc3c(c2)OCO3)CC1 [fipexide]
nucOX [1]: 0.163
nucOX [1, 9]: −0.010
ΔΨm [2]: −0.624
ΔΨm [2, 9]: −0.354
ROS [3]: 0.307
ROS [3, 9]: 0.873
mitoOX [4]: 0.155
mitoOX [4, 9]: −0.657
GE-HTS [5]: 0.169
GE-HTS [5, 9]: −0.241
Viability [6]: −0.617
Viability [6, 9]: 0.721
MTT [7]: −0.924
MTT [7, 9]: −0.186
cyt c [8]: 0.573
cyt c [8, 9]: −0.071

Oc1ccc2c(c1)O[C@H](c1ccc(O)c(O)c1)[C@@H](O)C2 [fisetinidol, reference compound]
nucOX (composite Z-score) ([1]; Conc 20 μM): −1.107
ΔΨm (composite Z-score) ([2]; Conc 20 μM): −1.528
ROS (composite Z-score) ([3]; Conc 20 μM): −0.215
mitoOX (composite Z-score) ([4]; Conc 20 μM): −0.536
GE-HTS (composite Z-score) ([5]; Conc 20 μM): −0.998
Viability (composite Z-score) ([6]; Conc 20 μM): −1.412
MTT (composite Z-score) ([7]; Conc 20 μM): −1.804
cyt c (composite Z-score) ([8]; Conc 20 μM): 0.234

COc1cc(O)c(C(=O)/C=C/c2ccccc2)c(OC)c1 [flavokawain B]
nucOX [1, 11]: −1.423
ΔΨm [2, 11]: −0.302
ROS [3, 11]: 0.292
mitoOX [4, 11]: −1.291
GE-HTS [5, 11]: −1.453
Viability [6, 11]: 0.583
MTT [7, 11]: −0.298
cyt c [8, 11]: 0.708

O=c1[nH]c(=O)n([C@H]2C[C@H](O)[C@@H](CO)O2)cc1F [floxuridine]
nucOX [1, 10]: 0.993
ΔΨm [2, 10]: −1.275
ROS [3, 10]: 0.063
mitoOX [4, 10]: 0.539
GE-HTS [5, 10]: 0.909
Viability [6, 10]: −0.712
MTT [7, 10]: −1.643
cyt c [8, 10]: −0.314

CC(=O)[C@@]1(O)CC[C@H]2[C@@H]3C[C@H](C)C4=CC(=O)C=C[C@]4(C)[C@@]3(F)[C@@H](O)C[C@@]21C [fluorometholone]
nucOX [1, 14]: 0.038
ΔΨm [2, 14]: −0.299
ROS [3, 14]: 2.141
mitoOX [4, 14]: 1.187
GE-HTS [5, 14]: 0.446
Viability [6, 14]: −0.965
MTT [7, 14]: −1.306
cyt c [8, 14]: −0.324

Fc1ccc(C(c2ccccc2)(c2ccccc2F)n2ccnc2)cc1 (stereo not shown) [flutrimazole]
nucOX [1, 9]: −0.592
ΔΨm [2, 9]: −0.429
ROS [3, 9]: 0.781
mitoOX [4, 9]: −0.915
GE-HTS [5, 9]: −0.763
Viability [6, 9]: 0.858
MTT [7, 9]: −0.356
cyt c [8, 9]: 0.904
